The source of these data is paper PMC4186683 (Molecular Pharmaceutics, 2014).

Marks after values point to notes of the source that are not given here.

Test system in one data set: not listed separately
Kind of data set: Fraction of total tissue amount present in the bilayer, calculated from Pb/w. The following applies: bilayer volume 2.5% of tissue volume, no protein binding.
Consider `BrCCc1ccccc1` [compound 7, 1-bromo-2-phenylethane], for which the “fraction of the total amount in the tissue present in the bilayer” value (“fraction of the total amount” for short) is 93%. Consider `CCCCCCO` [compound 11, 1-hexanol], for which the “fraction of the total amount” value is recorded as 68%. Turning to `c1ccc2[nH]ccc2c1` [compound 111, indole], the “fraction of the total amount” value is reported as 81%. For `OCc1c2ccccc2cc2ccccc12` [compound 82, 9-anthracenemethanol], the “fraction of the total amount” value is on record as 99%. As for `Cc1cc(O)ccc1Cl` [compound 74, 4-chloro-3-methylphenol], the “fraction of the total amount” value is recorded as 97%.

Test system in the next data set: not given
Assay: not given
To be noted: marked values, listed in Table 1; cited from earlier work.
For `CC(C)(c1ccc(O)cc1)c1ccc(O)cc1` [compound 91, bisphenol A], the “log P C16/DAcPC” value is given as “–2.70 ^b”. For `Cc1ccc(C)cc1` [compound 6, 1,4-dimethylbenzene], the “log P C16/DAcPC” value is on record as 2.59 ^b. `CCCc1ccccc1` [compound 101, n-propylbenzene]: the “log P C16/DAcPC” value is reported as 2.98 ^b. As for `OCc1c2ccccc2cc2ccccc12` [compound 82, 9-anthracenemethanol], the “log P C16/DAcPC” value is recorded as “–0.42 ^b”.

Test system in another data set: not given
Assay: not given
The following applies: DMPC bilayer; listed in Table 1; cited from earlier work.
Turning to `CC(C)(c1ccc(O)cc1)c1ccc(O)cc1` [compound 91, bisphenol A], the “log P bilayer/water exptl” value is 2.95. In the case of `OCc1ccccc1` [compound 89, benzylalcohol], the “log P bilayer/water exptl” value is given as 2.03. In the case of `Cc1ccc(C)cc1` [compound 6, 1,4-dimethylbenzene], the “log P bilayer/water exptl” value is recorded as 2.98.

Consider `CCCc1ccccc1` [compound 101, n-propylbenzene], for which the “log P bilayer/water exptl” value is 3.29. Take `OCc1c2ccccc2cc2ccccc12` [compound 82, 9-anthracenemethanol]: the “log P bilayer/water exptl” value is 3.50.

In the next data set the test system is rhodopsin.
Assay: not given
The following applies: 1-palmitoyl-2-oleoyl-PC vesicles ref 132; cited from earlier work.
In the case of `CCO` [compound 94, ethanol], the “effect on photolysis of rhodopsin” value is “promoting effect”.

Take `CCCCO` [compound 113, 1-butanol]: the “effect on photolysis of rhodopsin” value is on record as “promoting effect”. Take `CCCCCCO` [compound 11, 1-hexanol]: the “effect on photolysis of rhodopsin” value is given as “negligible”.

Regarding `CCCCCCCCO` [compound 116], the “effect on photolysis of rhodopsin” value is listed as “inhibitory effect”. Turning to `CCCCCO` [compound 114, 1-pentanol], the “effect on photolysis of rhodopsin” value is recorded as “promoting effect”. Take `CCCCCCCO` [compound 115]: the “effect on photolysis of rhodopsin” value is “inhibitory effect”.

Test system in the next data set: not given
Assay: not given
To be noted: experimental values from the ClogP database ref 119; cited from earlier work.
As for `Clc1cccc(Cl)c1-c1ccccc1` [compound 53, 2,6-dichlorobiphenyl], the “logP O/W” value is listed as 4.98.

Consider `BrCCCc1ccccc1` [compound 8, 1-bromo-3-phenylpropane], for which the “logP O/W” value is listed as 3.72. As to `Clc1ccc(Cl)c(-c2cc(Cl)ccc2Cl)c1` [compound 29, 2,2′,5,5′-tetrachlorobiphenyl], the “logP O/W” value is given as 6.26. `Clc1ccc(-c2ccccc2Cl)c(Cl)c1` [compound 28, 2,2′,4-trichlorobiphenyl]: the “logP O/W” value was 5.76.

As to `COc1cccc(OC)c1O` [compound 54, 2,6-dimethoxyphenol], the “logP O/W” value was 1.15. Regarding `Nc1cccc(Br)c1` [compound 63, 3-bromoaniline], the “logP O/W” value was 2.10. `Cc1ccc(C)c(O)c1` [compound 52, 2,5-dimethylphenol]: the “logP O/W” value is given as 2.33. Take `c1ccc2c(c1)ccc1ccccc12` [compound 104, phenanthrene]: the “logP O/W” value is given as 4.46.

Take `Nc1cc2ccccc2cc1N` [compound 42, 2,3-diaminonaphthalene]: the “logP O/W” value was 1.54. For the compound `Clc1ccc(-c2c(Cl)cccc2Cl)cc1` [compound 48, 2,4′,6-trichlorobiphenyl], the “logP O/W” value is reported as 5.75. Regarding `Clc1ccc(Cl)c(-c2cc(Cl)c(Cl)cc2Cl)c1` [compound 25, 2,2′,4,5,5′-pentachlorobiphenyl], the “logP O/W” value is 6.85. As to `Clc1cc(Cl)c(-c2ccccc2)c(Cl)c1` [compound 47, 2,4,6-trichlorobiphenyl], the “logP O/W” value is recorded as 5.71. As for `Clc1ccccc1Cl` [compound 1, 1,2-dichlorobenzene], the “logP O/W” value is recorded as 3.43. For `Cc1ccccc1Br` [compound 57, 2-bromotoluene], the “logP O/W” value is on record as 3.50.

On to `Clc1ccc(Cl)c(-c2c(Cl)ccc(Cl)c2Cl)c1Cl` [compound 17, 2,2′,3,3′,6,6′-hexachlorobiphenyl], for which the “logP O/W” value is on record as 7.12.

For `Clc1cccc(-c2ccccc2Cl)c1` [compound 44, 2,3′-dichlorobiphenyl], the “logP O/W” value is listed as 5.02. With `Clc1cccc(-c2ccccc2)c1Cl` [compound 43, 2,3-dichlorobiphenyl], the “logP O/W” value is reported as 4.99. For `Nc1ccc(Br)cc1` [compound 71, 4-bromoaniline], the “logP O/W” value is recorded as 2.11. As for `Clc1c(Cl)c(Cl)c(-c2ccccc2)c(Cl)c1Cl` [compound 35, 2,3,4,5,6-pentachlorobiphenyl], the “logP O/W” value is reported as 6.74. `CC(=O)c1ccc(N)cc1` [compound 68, 4-aminoacetophenone]: the “logP O/W” value is given as 0.86. Take `Clc1ccc(Cl)c(-c2ccccc2)c1` [compound 51, 2,5-dichlorobiphenyl]: the “logP O/W” value was 5.16. On to `Clc1ccccc1-c1c(Cl)cccc1Cl` [compound 31, 2,2′,6-trichlorobiphenyl], for which the “logP O/W” value was 5.47. In the case of `Clc1cccc(-c2ccc(Cl)c(Cl)c2Cl)c1Cl` [compound 16, 2,2′,3,3′,4-pentachlorobiphenyl], the “logP O/W” value was 6.30. As to `Clc1ccc(-c2ccccc2Cl)cc1` [compound 50, 2,4′-dichlorobiphenyl], the “logP O/W” value is listed as 5.10. Turning to `Brc1cccc2ccccc12` [compound 10, 1-bromonaphthalene], the “logP O/W” value was 4.06. As for `BrCCc1ccccc1` [compound 7, 1-bromo-2-phenylethane], the “logP O/W” value is 3.09. Regarding `CCCCCc1ccc(O)cc1` [compound 80, 4-n-pentylphenol], the “logP O/W” value is 4.24. For `Clc1cc(Cl)cc(Cl)c1` [compound 2, 1,3,5-trichlorobenzene], the “logP O/W” value was 4.19. Regarding `Clc1ccccc1-c1cccc(Cl)c1Cl` [compound 23, 2,2′,3-trichlorobiphenyl], the “logP O/W” value is given as 5.60. As for `Clc1ccccc1` [compound 92, chlorobenzene], the “logP O/W” value was 2.89. On to `Clc1cccc(-c2c(Cl)cccc2Cl)c1` [compound 41, 2,3′,6-trichlorobiphenyl], for which the “logP O/W” value is listed as 5.67. Consider `Cc1ccc2cc3ccccc3cc2c1` [compound 60, 2-methylanthracene], for which the “logP O/W” value is listed as 5.00. With `Clc1cccc(-c2cccc(Cl)c2Cl)c1Cl` [compound 18, 2,2′,3,3′-tetrachlorobiphenyl], the “logP O/W” value is recorded as 6.18.

Turning to `Clc1cccc(Cl)c1` [compound 3, 1,3-dichlorobenzene], the “logP O/W” value is listed as 3.53.

Regarding `O=C(c1ccccc1)c1ccc(Cl)cc1` [compound 75, 4-chlorobenzophenone], the “logP O/W” value is on record as 3.79. Turning to `Clc1ccc(-c2ccc(Cl)c(Cl)c2Cl)c(Cl)c1Cl` [compound 14, 2,2′,3,3′,4,4′-hexachlorobiphenyl], the “logP O/W” value is recorded as 7.32.

Consider `Cc1ccc([N+](=O)[O-])cc1` [compound 79, 4-nitrotoluene], for which the “logP O/W” value is 2.37. As to `Clc1ccc(Br)cc1` [compound 9, 1-bromo-4-chlorobenzene], the “logP O/W” value is 3.54.

For the compound `Clc1ccccc1-c1ccccc1` [compound 58, 2-chlorobiphenyl], the “logP O/W” value is 4.53.

`Clc1cc(Cl)c(-c2c(Cl)cc(Cl)cc2Cl)c(Cl)c1` [compound 24, 2,2′,4,4′,6,6′-hexachlorobiphenyl]: the “logP O/W” value is 7.29.

Consider `Clc1cc(-c2ccccc2)c(Cl)c(Cl)c1Cl` [compound 36, 2,3,4,5-tetrachlorobiphenyl], for which the “logP O/W” value is on record as 6.41. As to `CCOC(=O)c1cccnc1` [compound 95, ethylnicotinate], the “logP O/W” value is on record as 1.32. Turning to `Clc1cc(Cl)c(-c2ccccc2Cl)cc1Cl` [compound 26, 2,2′,4,5-tetrachlorobiphenyl], the “logP O/W” value is listed as 6.27. Turning to `CN(C)c1ccc(C=O)cc1` [compound 77, 4-dimethylamino-benzaldehyde], the “logP O/W” value is 2.01. Consider `Clc1ccccc1-c1ccccc1Cl` [compound 33, 2,2′-dichlorobiphenyl], for which the “logP O/W” value is on record as 4.97. Turning to `Cc1cccc(C)c1[N+](=O)[O-]` [compound 4, 1,3-dimethyl-2-nitrobenzene], the “logP O/W” value was 2.95.

Regarding `Clc1ccc(Cl)c(-c2cccc(Cl)c2Cl)c1` [compound 21, 2,2′,3,5′-tetrachlorobiphenyl], the “logP O/W” value was 5.81.

On to `Clc1ccc(-c2ccccc2)c(Cl)c1` [compound 49, 2,4-dichlorobiphenyl], for which the “logP O/W” value was 5.30. On to `Clc1cccc(-c2cc(Cl)ccc2Cl)c1` [compound 39, 2,3′,5-trichlorobiphenyl], for which the “logP O/W” value is 5.76. Take `Clc1ccc(-c2cc(Cl)ccc2Cl)c(Cl)c1` [compound 27, 2,2′,4,5′-tetrachlorobiphenyl]: the “logP O/W” value was 6.36. For `Clc1ccc(Cl)c(-c2ccccc2)c1Cl` [compound 40, 2,3,6-trichlorobiphenyl], the “logP O/W” value is given as 5.67. `Clc1cc(Cl)c(-c2ccccc2)cc1Cl` [compound 46, 2,4,5-trichlorobiphenyl]: the “logP O/W” value was 5.90. For the compound `Cc1cc(O)ccc1Cl` [compound 74, 4-chloro-3-methylphenol], the “logP O/W” value is 3.10. `Nc1cc(Cl)c(Cl)cc1Cl` [compound 45, 2,4,5-trichloroaniline]: the “logP O/W” value is listed as 3.69.
